Measurements as given in BindingDB's records for doi:10.7270/Q2251GJ9 (The Scripps Research Institute Molecular Screening Center, 2007).

target: Sphingosine 1-phosphate receptor 1 (Homo sapiens, UniProt P21453); assay: direct activation of human S1P1 – cell-based, agonist mode, 60K MLSMR set, dose response (AID 468); details: not given
Sequence (P21453 whole entry): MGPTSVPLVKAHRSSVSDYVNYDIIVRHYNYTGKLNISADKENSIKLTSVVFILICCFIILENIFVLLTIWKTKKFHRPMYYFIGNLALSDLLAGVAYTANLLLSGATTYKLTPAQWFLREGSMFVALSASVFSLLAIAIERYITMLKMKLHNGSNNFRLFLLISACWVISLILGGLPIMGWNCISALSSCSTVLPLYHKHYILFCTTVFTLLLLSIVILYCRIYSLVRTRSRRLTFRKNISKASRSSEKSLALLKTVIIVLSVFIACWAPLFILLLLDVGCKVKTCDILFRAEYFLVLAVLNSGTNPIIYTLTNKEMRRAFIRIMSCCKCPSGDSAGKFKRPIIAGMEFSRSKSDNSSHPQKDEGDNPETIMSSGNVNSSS

`Cn1c(=O)oc2cc(S(=O)(=O)N3CCCC(C(=O)N4CC=C(c5ccccc5)CC4)C3)ccc21` (stereo not drawn) [3-methyl-6-[3-(4-phenyl-3,6-dihydro-2H-pyridine-1-carbonyl)piperidin-1-yl]sulfonyl-1,3-benzoxazol-2-one] and `CS(=O)(=O)n1nc(OC(=O)c2cccc3ccccc23)cc1N` [(5-amino-1-methylsulfonylpyrazol-3-yl) naphthalene-1-carboxylate] are within 1.5-fold of each other in EC50: 9.63 µM for the first, 9.29 µM for the second.

`CCOC(=O)c1sc2nc(NC(=O)C3CCCCC3)sc2c1C` [2-(cyclohexanecarbonylamino)-6-methyl-thieno[2,3-d]thiazole-5-carboxylic acid ethyl ester] and `O=C(NCc1ccc2c(c1)OCO2)C1CC(=O)N(C2CCCCCCC2)C1` (stereo not drawn) [1-cyclooctyl-5-keto-N-piperonyl-pyrrolidine-3-carboxamide] cannot be ordered by EC50: > 30 µM for the first, > 95 µM for the second.

`O=S(=O)(Nc1ccc2c(c1)OCCO2)c1ccc2oc3ccccc3c2c1` [MLS000051884] and `CCCCOc1ccc(S(=O)(=O)Nc2cccnc2)cc1` [4-butoxy-N-(3-pyridinyl)benzenesulfonamide] are within 1.5-fold of each other in EC50: 7.68 µM for the first, 9.47 µM for the second.

Compared with `CCN(CC)c1ccc2cc(NC(=O)CCC(=O)O)c(=O)oc2c1` [4-[[7-(diethylamino)-2-keto-chromen-3-yl]amino]-4-keto-butyric acid], `CC(C)OCCCNc1ncnc2c1[nH]c1ccc(F)cc12` is 2.2-fold lower in EC50: 9.78 µM for the first, 4.41 µM for the second.

First: Cc1ccc(OCCn2cc(C(=N)NO)c3ccccc32)cc1C [1-[2-(3,4-dimethylphenoxy)ethyl]-N'-hydroxy-1H-indole-3-carboximidamide]
Second: COc1ccc(CCNc2c(C)c(C)nc3ncnn23)cc1 [(5,6-Dimethyl-[1,2,4]triazolo[1,5-a]pyrimidin-7-yl)-[2-(4-methoxy-phenyl)-ethyl]-amine]
The EC50 of the first is 3.1-fold higher: 9.82 µM for the first, 3.12 µM for the second.

Going from `Cc1ccc(N2C(=O)c3cccc4c(N5CCN(C)CC5)ccc(c34)C2=O)c2cccnc12` [6-(4-methyl-1-piperazinyl)-2-(8-methyl-5-quinolinyl)-1H-benzo[de]isoquinoline-1,3(2H)-dione] to `Cc1cc(C=Nn2cnnc2)c(C)n1-c1ccc(OCc2ccc(F)cc2)cc1` [MLS000112167], the EC50 falls from > 30 µM to 0.552 µM. The second is the more potent here.

Compared with `CN1/C(=C/C(=O)c2nc(S(C)(=O)=O)ncc2Cl)C(C)(C)c2ccccc21`, `COc1ccccc1-n1nnnc1SCc1cc2c(cc1Br)OCO2` [5-[(6-bromanyl-1,3-benzodioxol-5-yl)methylsulfanyl]-1-(2-methoxyphenyl)-1,2,3,4-tetrazole] is higher in EC50: 8.79 µM for the first, > 10 µM for the second.

Compared with `CCOc1ccc(-c2noc(-c3ccncc3)n2)cc1OCC` [3-(3,4-diethoxyphenyl)-5-(4-pyridyl)-1,2,4-oxadiazole], `COc1cc(CSc2nnnn2-c2ccc(C)cc2)cc(OC)c1OC` [1-(4-methylphenyl)-5-[(3,4,5-trimethoxybenzyl)thio]-1H-tetrazole] is 3.7-fold higher in EC50: 0.613 µM for the first, 2.26 µM for the second.

Compared with `COc1cccc2sc(Nc3nc(-c4ccccn4)cs3)nc12` [(4-methoxy-1,3-benzothiazol-2-yl)-[4-(2-pyridyl)thiazol-2-yl]amine], `c1ccc(CNc2ncnc3ccccc23)cc1` [N-benzylquinazolin-4-amine] is 1.7-fold higher in EC50: 2.75 µM for the first, 4.81 µM for the second.

same assay, conditions: inactive by the depositor's call

`O=C1CC(N2CCN(C/C=C/c3ccccc3)CC2)C(=O)N1CCc1ccccc1` (stereo not drawn) [1-(2-phenylethyl)-3-[4-[(E)-3-phenylprop-2-enyl]-1-piperazinyl]pyrrolidine-2,5-dione] and `CC(C)Cn1c(=O)c(C(=O)Nc2ccccc2S(N)(=O)=O)c(O)c2ccccc21` [1-(2-methylpropyl)-2-oxidanyl-4-oxidanylidene-N-(2-sulfamoylphenyl)quinoline-3-carboxamide] are within 1.5-fold of each other in EC50: 20 µM for the first, 13.4 µM for the second.

`CCCC(=O)Nc1ccc(-c2nc3cc(C)c(C)cc3o2)cc1` [MLS000089940] and `COc1ccc(Cc2nc(-c3ccc(-n4cccc4)cc3)no2)cc1OC` [3-(4-pyrrol-1-ylphenyl)-5-veratryl-1,2,4-oxadiazole] are within 1.5-fold of each other in EC50: 10.2 µM for the first, 13.7 µM for the second.

In the case of `C=CCn1c(SCC(=O)c2cccs2)nc2sc(CC)cc2c1=O` [3-allyl-6-ethyl-2-[[2-keto-2-(2-thienyl)ethyl]thio]thieno[2,3-d]pyrimidin-4-one], the EC50 is reported as 39.9 µM.
